In PubChem BioAssay (NCI):
Where “and” joins values, the source holds several entries; their conditions need not be identical. Identical values can stand only once.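 96-well plates; 48 h exposure; 5 concentrations. Endpoints by linear interpolation between flanking doses. Not reached: highest tested concentration assigned. At the GI50, growth is halved. At the TGI there is no net growth.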

How the values were obtained:
Test in all cases: growth of human tumour cells (NCI), 48 h
A498 renal = test system: A498 renal
CAKI-1 renal = test system: CAKI-1 renal
EKVX NSCLC = test system: EKVX NSCLC
HCT-15 colon = test system: HCT-15 colon
HT29 colon = test system: HT29 colon
MOLT-4 leukemia = test system: MOLT-4 leukemia
NCI-H23 lung = test system: NCI-H23 lung
SK-MEL-2 melanoma = test system: SK-MEL-2 melanoma
ACHN renal = test system: ACHN renal
UO-31 renal = test system: UO-31 renal

| SMILES | GI50 (A498 renal) [µM] | TGI (A498 renal) [µM] | GI50 (CAKI-1 renal) | TGI (CAKI-1 renal) | GI50 (EKVX NSCLC) | TGI (EKVX NSCLC) | GI50 (HCT-15 colon) | TGI (HCT-15 colon) | GI50 (HT29 colon) [µM] | TGI (HT29 colon) [µM] | GI50 (MOLT-4 leukemia) [µM] | TGI (MOLT-4 leukemia) [µM] | GI50 (NCI-H23 lung) [µM] | TGI (NCI-H23 lung) [µM] | GI50 (SK-MEL-2 melanoma) | TGI (SK-MEL-2 melanoma) | GI50 (ACHN renal) | TGI (ACHN renal) | GI50 (UO-31 renal) | TGI (UO-31 renal) |
| --- | --- | --- | --- | --- | --- | --- | --- | --- | --- | --- | --- | --- | --- | --- | --- | --- | --- | --- | --- | --- |
| N#Cc1c(N)nc(N2CCOCC2)c(C#N)c1-c1cccc(O)c1 | 14.8 | 58.3 | > 100 µM | > 100 µM | 73.5 µM | > 100 µM | 67 µM | > 100 µM | > 100 | > 100 | > 100 | > 100 | 54.8 | > 100 | > 100 µM | > 100 µM |  |  |  |  |
| C=C1C(=O)O[C@H]2[C@H]1CC/C(COC(=O)NCCc1c[nH]c3ccccc13)=C\CC[C@@]1(C)O[C@@H]21 | 8.19 | 21.2 |  |  | 1.51 µM | 3.57 µM | 1.23 µM | 2.81 µM | 1.55 | 3.78 | 1.91 | 6.59 | 2.28 | 6.81 | 5.53 µM | 20.1 µM | 1.37 µM | 2.71 µM | 1.43 µM | 2.73 µM |
| Cc1ccc(C2=NN(C)COC2C(F)(F)F)cc1 (configuration not stated) |  |  |  | > 100 µM |  | > 100 µM |  | > 100 µM |  | > 100 |  | > 100 |  | > 100 |  | > 100 µM |  | > 100 µM |  | > 100 µM |
| O=C(/C=C\c1cccc2ccccc12)c1ccc(Br)cc1 |  | > 100 |  | > 100 µM |  | 52.1 µM |  | 34.7 µM |  | 35.3 |  | 82.2 |  | > 100 |  |  |  | 31.2 µM |  | 42.5 µM |
| COc1ccc2c(c1)/C(=C/c1c(-c3ccc(C)cc3)nc3sc(C)cn13)C(=O)N2 | 20.2 | 60.6 | 35.3 µM | > 100 µM | 9.62 µM | > 100 µM |  |  | 8.92 | > 100 |  |  | 6.86 | 32.5 | 14.6 µM | 47.7 µM |  |  | 10.5 µM | > 100 µM |
| COc1cc(-c2ccc(-[n+]3nc(-c4ccc([N+](=O)[O-])cc4)nn3-c3ccc([N+](=O)[O-])cc3)c(OC)c2)ccc1-[n+]1nc(-c2ccc([N+](=O)[O-])cc2)nn1-c1ccc([N+](=O)[O-])cc1 | 2.99 | 13.9 | 15.1 µM | 48.5 µM |  |  | 6.17 µM | 49.5 µM | 3.43 | 15.2 | 2.98 | > 82 | 3.76 | 47.1 | 4.29 µM | 17.9 µM | 4.16 µM | 19.2 µM | 6.28 µM | 27.8 µM |
| CCOC(=O)C(=O)Nc1ccc([N+](=O)[O-])cc1C#N |  |  |  | > 100 µM |  | > 100 µM |  | > 100 µM |  | > 100 |  | > 100 |  | > 100 |  | > 100 µM |  | > 100 µM |  | > 100 µM |
| O=C1OC2(c3ccccc31)c1cc(I)c(O)c(I)c1Oc1c2cc(I)c(O)c1I |  |  |  | 85 µM |  | > 100 µM |  | > 100 µM |  | > 100 |  | > 100 |  | > 100 |  | > 100 µM |  | > 100 µM |  | > 100 µM |
| CCCN1C(=O)/C(=C/c2ccc(O)cc2)SC1=Nc1ccccc1 |  |  | 21.6 µM | 38.8 µM | 14.5 µM | 32.1 µM | 16.9 µM | 37.5 µM | 33.5 | 86.7 | > 100 | > 100 | 34.1 | 93 | 51 µM | > 100 µM | 18.2 µM | 34.9 µM | 38.3 µM | > 100 µM |
| C/C=C/C/C=C/CCC(=O)C1OC1C(N)=O (configuration not stated) |  |  |  | 29.8 µM |  | 36.4 µM |  | 25.9 µM |  | 33.1 |  | 51.7 |  | 28.2 |  | 32.5 µM |  | 28.5 µM |  | 29.5 µM |
| O=c1[nH]cnc2c1nnn2[C@@H]1O[C@H](CO)[C@@H](O)[C@H]1O | 2.51 | 57.4 | 1.04 µM | > 100 µM |  |  | 2.8 µM | > 100 µM | 4.51 | > 100 | 1.96 | 22.9 | 6.65 | > 100 | 5.4 µM | 70 µM | 2.87 µM | > 100 µM | 4.46 µM | > 100 µM |
| CCOC(=O)CCc1c(C)c2ccc(O)cc2oc1=O |  | > 100 |  | > 100 µM |  | > 100 µM |  | > 100 µM |  | > 100 |  | > 100 |  | > 100 |  | > 100 µM |  | > 100 µM |  |  |
| COc1ccc(C2c3cc4c(cc3OC(O)(CO)C2C(=O)O)OCO4)c(OC)c1OC (configuration not stated) (tested in a mixture with another compound) |  |  |  | > 100 µM |  | > 100 µM |  | > 100 µM |  | > 100 |  | > 100 |  | > 100 |  | > 100 µM |  | > 100 µM |  | > 100 µM |
| CC1CC(C)C(=O)C(C(=O)CC2CC(=O)NC2=O)C1 (configuration not stated) |  | > 100 |  | > 100 µM |  | > 100 µM |  |  |  | > 100 |  |  |  | > 100 |  |  |  | > 100 µM |  | > 100 µM |
| CCC(=O)Nc1ccc2c(c1)CN1C(=O)c3ccccc3C1=N2 |  |  | > 100 µM | > 100 µM |  |  | > 100 µM | > 100 µM | > 100 | > 100 | > 100 | > 100 | > 100 | > 100 | > 100 µM | > 100 µM | > 100 µM | > 100 µM | > 100 µM | > 100 µM |
| Cc1cc(Nc2nc(N3CCOCC3)nc3ccccc23)n[nH]1 | 1.01 | 5.33 | 1.4 µM | 12.3 µM |  |  | 3.54 µM | > 100 µM | 5.09 | 52.8 | 15 | 77.9 |  |  | 5.2 µM | > 100 µM | 2.03 µM | 18.5 µM | 1.38 µM | 11.2 µM |
| Cc1cc2c(cc1C)[n+](=O)c(C(=O)c1cccs1)c(C(F)(F)F)n2[O-] |  |  | 2.32 µM and 2.48 µM | 9.59 µM and 13.2 µM | 0.915 µM and 1.17 µM | 3.22 µM and 4.15 µM | 5.27 µM and 3.56 µM | 26 µM and 56 µM | 9.97 | 50 | 4.39 | 50 | 6.25 | 19.7 | 15.8 µM and 8.02 µM | 50 µM and 26.3 µM | 7.17 µM and 2.75 µM | 14.9 µM and 17.4 µM | 1.49 µM and 1.07 µM | 5.83 µM and 2.34 µM |
